Values after ≈ are worked out from the molar mass of the structure shown. Active and inactive are the calls of the source. The calls are words filed in the database; no cut-off is given here.
Experiments:
[1] = Inhibition of lipid peroxidation in egg yolk (unknown origin) at 100 uM preheated with compound and FeSO4 for 15 mins followed by TCA/TBA addition measured after 15 mins by absorbance based assay relative to control; type: functional, tissue-based; design: scale not given: the % may be the effect or the level left; settings: time 30.0 min
[2] = Solubility in […] incubated for 10 mins; type: physicochemical
[3] = Antioxidant activity assessed as clearing rate incubated for 5 mins in presence of pyrogallol by superoxide anion scavenging assay; type: functional
[4] = Inhibition of lipid peroxidation in egg yolk (unknown origin) preheated with compound and FeSO4 for 15 mins followed by TCA/TBA addition measured after 15 mins by absorbance based assay; type: functional, tissue-based
[5] = Antioxidant activity assessed as inhibition of DPPH free radical scavenging activity incubated for 30 mins under dark condition; type: functional
[6] = Solubility in ethyl acetate incubated for 10 mins; type: physicochemical
[7] = Antioxidant activity assessed as clearing rate incubated for 30 mins under dark condition by DPPH free radical scavenging assay; type: functional
[8] = Solubility in methanol incubated for 10 mins; type: physicochemical
[9] = Solubility in water incubated for 10 mins; type: physicochemical
[10] = Antioxidant activity assessed as inhibition of superoxide anion scavenging activity incubated for 5 mins in presence of pyrogallol; type: functional
Rattus norvegicus [11] = assay: (§1) Hepatoprotective activity in male Sprague-Dawley rat model of CCl4-induced ALI assessed as reduction in vacuoles at 100 mg/kg, IG qd pretreated with compound for 7 days followed by CCl4 administration after 2 hrs post-compound treatment measured after 16 hrs post-CCl4 injection by H and E staining based analysis; type: functional, organism-based; settings: time 186.0 hrs
[12] = Tmax in overnight-fasted male Sprague-Dawley rat at 150 mg/kg, po measured up to 12 hrs by HPLC analysis; type: ADME, organism-based; settings: in vivo
Rattus norvegicus [13] = assay: Hepatoprotective activity in male Sprague-Dawley rat model of CCl4-induced ALI assessed as reduction in dullness of liver margin at 100 mg/kg, IG qd pretreated with compound for 7 days followed by CCl4 administration after 2 hrs post-compound treatment measured after 16 hrs post-CCl4 injection; type: functional, organism-based; settings: time 186.0 hrs
Rattus norvegicus [14] = assay: Hepatoprotective activity in male Sprague-Dawley rat model of CCl4-induced ALI assessed as restoration of serum ALT level at 100 mg/kg, IG qd pretreated with compound for 7 days followed by CCl4 administration after 2 hrs post-compound treatment measured after 16 hrs post-CCl4 injection; type: functional, organism-based; settings: time 186.0 hrs
Rattus norvegicus [15] = assay: Hepatoprotective activity in male Sprague-Dawley rat model of CCl4-induced ALI assessed as reduction in white granular fat in liver at 100 mg/kg, IG qd pretreated with compound for 7 days followed by CCl4 administration after 2 hrs post-compound treatment measured after 16 hrs post-CCl4 injection; type: functional, organism-based; settings: time 186.0 hrs
Mus musculus [16] = assay: Anti-MASH activity in HFD-fed CCl4-treated male C57BL/6 mouse assessed as reduction in hepatocyte ballooning in liver at 150 mg/kg, po qd treated for 4 weeks by H and E/Oil red O staining based analysis; type: functional, organism-based
Rattus norvegicus [17] = assay: as §1, with “acute fat deposition” for “vacuoles”, “oil red O” for “H and E”; type: functional, organism-based; settings: time 186.0 hrs
[18] = MRT (0 to infinity) in overnight-fasted male Sprague-Dawley rat at 150 mg/kg, po measured up to 12 hrs by HPLC analysis; type: ADME, organism-based; settings: in vivo
[19] = Cmax in overnight-fasted male Sprague-Dawley rat at 150 mg/kg, po measured up to 12 hrs by HPLC analysis; type: ADME, organism-based; settings: in vivo
Rattus norvegicus [20] = assay: Hepatoprotective activity in male Sprague-Dawley rat model of CCl4-induced ALI assessed as restoration of serum LDH level at 100 mg/kg, IG qd pretreated with compound for 7 days followed by CCl4 administration after 2 hrs post-compound treatment measured after 16 hrs post-CCl4 injection; type: functional, organism-based; settings: time 186.0 hrs
Mus musculus [21] = assay: Anti-MASH activity in HFD-fed CCl4-treated male C57BL/6 mouse assessed as reduction in hepatic triglyceride level at 150 mg/kg, po qd treated for 4 weeks by ELISA; type: functional, organism-based
Rattus norvegicus [22] = assay: Hepatoprotective activity in male Sprague-Dawley rat model of CCl4-induced ALI assessed as reduction in yellowing of liver at 100 mg/kg, IG qd pretreated with compound for 7 days followed by CCl4 administration after 2 hrs post-compound treatment measured after 16 hrs post-CCl4 injection; type: functional, organism-based; settings: time 186.0 hrs
[23] = Toxicity in male Sprague-Dawley rat model of CCl4-induced ALI assessed as body weight change at 100 mg/kg, IG qd pretreated with compound for 7 days followed by CCl4 administration after 2 hrs post-compound treatment measured after 16 hrs post-CCl4 injection; type: organism-based; settings: in vivo, po, 186 h
Mus musculus [24] = assay: Anti-MASH activity in HFD-fed CCl4-treated male C57BL/6 mouse assessed as reduction in inflammation in liver at 150 mg/kg, po qd treated for 4 weeks by H and E/Oil red O staining based analysis; type: functional, organism-based
[25] = AUC (0 to infinity) in overnight-fasted male Sprague-Dawley rat at 150 mg/kg, po measured up to 12 hrs by HPLC analysis; type: ADME, organism-based; settings: in vivo
[26] = Apparent clearance during terminal phase in overnight-fasted male Sprague-Dawley rat at 150 mg/kg, po measured up to 12 hrs by HPLC analysis; type: ADME, organism-based; settings: in vivo, read-out: CLz/F (converted)
Mus musculus [27] = assay: Anti-MASH activity in HFD-fed CCl4-treated male C57BL/6 mouse assessed as reduction in fat accumulation in liver at 150 mg/kg, po qd treated for 4 weeks by Oil red O staining based analysis; type: functional, organism-based
Mus musculus [28] = assay: Anti-MASH activity in HFD-fed CCl4-treated male C57BL/6 mouse assessed as reduction in steatosis in liver at 150 mg/kg, po qd treated for 4 weeks by H and E/Oil red O staining based analysis; type: functional, organism-based
Mus musculus [29] = assay: Anti-MASH activity in HFD-fed CCl4-treated male C57BL/6 mouse assessed as reversal of hepatopancreas somatic indices at 150 mg/kg, po qd treated for 4 weeks; type: functional, organism-based
Rattus norvegicus [30] = assay: Hepatoprotective activity in male Sprague-Dawley rat model of CCl4-induced ALI assessed as reduction in roughened surface in liver at 100 mg/kg, IG qd pretreated with compound for 7 days followed by CCl4 administration after 2 hrs post-compound treatment measured after 16 hrs post-CCl4 injection; type: functional, organism-based; settings: time 186.0 hrs
[31] = Apparent volume of distribution during terminal phase in overnight-fasted male Sprague-Dawley rat at 150 mg/kg, po measured up to 12 hrs by HPLC analysis; type: ADME, organism-based; settings: in vivo, read-out: Vz/F
Mus musculus [32] = assay: Anti-MASH activity in HFD-fed CCl4-treated male C57BL/6 mouse assessed as reduction in hepatic cholesterol level at 150 mg/kg, po qd treated for 4 weeks by ELISA; type: functional, organism-based
[33] = Terminal half life in overnight-fasted male Sprague-Dawley rat at 150 mg/kg, po measured up to 12 hrs by HPLC analysis; type: ADME, organism-based; settings: in vivo, read-out: beta t1/2 (converted)
Rattus norvegicus [34] = assay: Hepatoprotective activity in male Sprague-Dawley rat model of CCl4-induced ALI assessed as restoration of serum AST level at 100 mg/kg, IG qd pretreated with compound for 7 days followed by CCl4 administration after 2 hrs post-compound treatment measured after 16 hrs post-CCl4 injection; type: functional, organism-based; settings: time 186.0 hrs
[35] = Toxicity in male Sprague-Dawley rat model of CCl4-induced ALI assessed as animal growth at 100 mg/kg, IG qd pretreated with compound for 7 days followed by CCl4 administration after 2 hrs post-compound treatment measured after 16 hrs post-CCl4 injection; type: organism-based; settings: in vivo, po, 186 h

Compound: COc1cc([C@@H]2Oc3cc([C@H]4Oc5cc(O)cc(O)c5C(=O)[C@@H]4O)ccc3OC2CSC(C)=O)ccc1O (stereo not given in full)
- Activity [1]: 83.8%
- solubility [2]: > 1000 mg/mL
- Activity [3]: 36.6%
- IC50 [4]: 24 µM
- IC50 [5]: > 200 µM
- solubility [6]: > 1000 mg/mL
- Activity [7]: 39.3%
- solubility [8]: > 1000 mg/mL
- solubility at 10 min [9]: 0.3 mg/mL (≈ 0.555 mM)
- IC50 [10]: > 200 µM

Compound: COc1cc(C2Oc3cc([C@H]4Oc5cc(O)cc(O)c5C(=O)[C@@H]4O)ccc3OC2CSSCC2Oc3ccc([C@H]4Oc5cc(O)cc(O)c5C(=O)[C@@H]4O)cc3O[C@H]2c2ccc(O)c(OC)c2)ccc1O (single isomer, unassigned)
- Activity [1]: 75.2%
- solubility [2]: > 1000 mg/mL
- Activity [3]: 40.6%
- IC50 [4]: 28.7 µM
- IC50 [5]: 158 µM
- solubility [6]: 523 mg/mL (≈ 526 mM)
- Activity [7]: 53.9%
- solubility [8]: 246 mg/mL (≈ 247 mM)
- solubility at 10 min [9]: 0.19 mg/mL (≈ 0.191 mM)
- IC50 [10]: > 200 µM

Compound: COc1cc([C@@H]2Oc3cc([C@H]4Oc5cc(O)cc(O)c5C(=O)[C@@H]4O)ccc3OC2CO)ccc1O (stereo not given in full)
- Activity [1]: 39.6%
- Activity (Rattus norvegicus [11]): Active
- solubility [2]: 367 mg/mL (≈ 761 mM)
- Tmax [12]: 1.02 h
- Activity (Rattus norvegicus [13]): Active
- Activity (Rattus norvegicus [14]): Active
- Activity (Rattus norvegicus [15]): Active
- Activity (Mus musculus [16]): Active
- Activity [3]: 34.6%
- Activity (Rattus norvegicus [17]): Active
- MRT inf [18]: 5.22 h
- Cmax [19]: 194 ng/mL
- Activity (Rattus norvegicus [20]): Active
- Activity (Mus musculus [21]): Active
- IC50 [4]: > 100 µM
- IC50 [5]: > 200 µM
- Activity (Rattus norvegicus [22]): Active
- Activity [23]: Non-toxic
- Activity (Mus musculus [24]): Active
- AUC(0-inf) [25]: 494 ng·h/mL
- CL/F [26]: 1250 mL/min
- solubility [6]: 15.4 mg/mL (≈ 31.9 mM)
- Activity (Mus musculus [27]): Active
- Activity (Mus musculus [28]): Active
- Activity [7]: 47.2%
- Activity (Mus musculus [29]): Active
- Activity (Rattus norvegicus [30]): Active
- solubility [8]: 10.6 mg/mL (≈ 22 mM)
- Vd/F [31]: 447 L
- Activity (Mus musculus [32]): Active
- half-life [33]: 2.45 h
- Activity (Rattus norvegicus [34]): Active
- solubility at 10 min [9]: 0.14 mg/mL (≈ 0.29 mM)
- Activity [35]: Non-toxic
- IC50 [10]: > 200 µM

— ChEMBL document CHEMBL6182935, “Discovery of a Novel Silybin Derivative for the Treatment of Metabolic Dysfunction-Associated Steatohepatitis” (J Med Chem, 2025)
